Experimental data taken from patent US20230322815A1, “NOVEL COMPOUNDS AND THERAPEUTIC USES THEREOF” (University of Huddersfield, priority 2020, published 2023).

Assays:
HCT116 cancer cells = test: Immunoblot of cellular proteins after treatment; type: cell-based, human; settings: 5 μM, 40 h
Procedure: (§1) FIG. 12. Immunoblots showing the differential effects of [L2Cu3]^6+ and [L2Zn3]^6+ treatment of HCT116 cancer cells and ARPE19 non-cancer cells on key cellular proteins associated with cellular and metabolic stress. Representative immunoblot images of the indicated proteins following cell exposure to 5 μM [L2Cu3]^6+ or [L2Zn3]^6+ for 40 h. Tyrosine phosphorylated proteins are indicated using a pan-phospho-Tyr antibody; β-actin as a loading control.
(§2) Protein lysates and recombinant proteins were resolved on 15% SDS polyacrylamide gels. Proteins were electroblotted onto nitrocellulose membrane by wet transfer in 1×Tris Glycine buffer (Biorad) at 35 mA overnight at room temperature (Allison et al., 2014). After blocking of membranes, these were incubated with primary antibody overnight at 4° C. before addition of rabbit or mouse secondary antibody (HRP-conjugated) for 1 h at room temperature and development of blots by enhanced chemiluminescence. Primary antibodies were: anti-Src (total) (Cell Signalling Technology #2123 1:1000), anti-phosphorylated Src (Y527) (Cell Signalling Technology #21055 1:1000), anti-phosphorylated Src (Y416) (Cell Signalling Technology #69435 1:1000), anti-AMPKα (total) (Cell Signalling Technology #2532 1:1000), anti-phosphorylated AMPKα (T172) (Cell Signalling Technology […] 1:1000), anti-phospho-Tyr (pan) (Cell Signalling Technology #8954 1:2000), anti-p53 (Santa Cruz, DO-1 clone, 1:1000), anti-β-actin (Merck MAB1501, 1:40,000). Quantification of signals was performed by densitometry using Image J software.

ARPE19 non-cancer cells = test: Immunoblot of cellular proteins after treatment; type: cell-based, human; settings: 5 μM, 40 h
Procedure: as §1, §2

[1] = test system: HCT116 p53^−/− cancer cells; test: Autophagy (CYTO-ID staining, confocal); type: cell-based, human; settings: 3.125 μM, 40 h
Procedure: (§3) FIG. 17. The effects of [L2Cu3]^6+, [L2Zn3]^6+ and [L2Mn3]^6+ on cellular vacuole formation and autophagy in the HCT116 p53^−/− cancer cells. Representative confocal images are shown of HCT116 p53^−/− cancer cells following 40 h treatment with vehicle control or 3.125 μM [L2Cu3]^6+, [L2Zn3]^6+, or [L2Mn3]^6+.
(§4) Autophagy studies: The effects of 3.125 μM [L2Cu3]^6+, [L2Zn3]^6+ and [L2Mn3]^6+ treatments (40 h) on the induction of cellular vacuoles and autophagy in the HCT116 p53^−/−, HCT116 p53^+/+ and ARPE19 cells are presented in FIGS. 17-19 with representative cell images shown. […] In the ARPE19 cells, levels of autophagy were low with all treatments and similar to basal levels in control-treated cells (FIG. 19).

[2] = test system: HCT116 p53^+/+ cancer cells; test: Autophagy (CYTO-ID staining, confocal); type: cell-based, human; settings: 3.125 μM, 40 h
Procedure: as §3, with “18.” for “17.”, “p53^+/+” for “p53^−/−”
as §4

[3] = Dephosphorylation of phosphorylated amino acid (31P NMR); settings: 37° C.
Procedure: FIG. 6. Phosphatase activity of [L2Zn3]^6+. ^31P NMR spectra using different substrates including PhOPO3 (spectra A to D), serine phosphate (spectra E to H), threonine phosphate (spectra I to L) and tyrosine phosphate (spectra M to P). Specific details for each ^31P NMR spectra are as follows: Spectra A, E, I and M represent substrate alone (44 hrs incubated @ 37° C.); Spectra B, F, J and N represents [L2Zn3]^6+ plus substrate (t=0 min); Spectra C, G, K and O represents [L2Zn3]^6+ plus substrate incubated @ 37° C. for 19 hours; Spectra D, H, L and […] represents [L2Zn3]^6+ plus substrate incubated @ 37° C. for 44 hours. The ^31P NMR of [L2Zn3(PO4)]^3+ gives a signal at 8.6 ppm.
Given the importance of protein phosphorylation in inter- and intra-cellular signalling and to cell function, and its common dysregulation in cancers,^30, 31 it was next analysed whether the Zn^2+ complex could dephosphorylate the phosphorylated amino acids serine, threonine and tyrosine. […] Dephosphorylation of the amino acid threonine-OPO3^2− by the Zn^2+ complex was much slower however and after 48 hrs threonine-OPO3^2− was still the major species (FIG. 6, spectra I-L). Differences in reactivity towards different substrates can be attributed to both steric and electronic effects. […]

[4] = Phosphatase activity: hydrolysis of 4-nitrophenyl phosphate; settings: following mixing
Description: Only [L2Zn3(PO4)]^3+ was observed, coupled with a rapid yellowing of the solution due to the formation of 4-nitrophenolate.
The rate of substrate hydrolysis is also dependent upon the metal used in the self-assembly process.

Row | SMILES | increase in p53 levels (HCT116 cancer cells) [fold] | p53 levels (ARPE19 non-cancer cells) | induction of autophagy [1] | induction of autophagy [2] | cellular p-T172 AMPKα relative to total AMPKα levels (HCT116 cancer cells) | decrease in total levels of Tyr-phosphorylated proteins (HCT116 cancer cells; pan phospho-tyrosine antibody) [%] | time to completion of dephosphorylation [3] [h] | rate of dephosphorylation ([3]; after 48 hrs threonine-OPO3^2− still the major species) | hydrolysis of 4-nitrophenyl phosphate by 31P NMR [4]
1 | [Cu+2].[Cu+2].[Cu+2].c1ccc(-c2csc(NCCN(CCNc3nc(-c4ccccn4)cs3)CCNc3nc(-c4ccccn4)cs3)n2)nc1.c1ccc(-c2csc(NCCN(CCNc3nc(-c4ccccn4)cs3)CCNc3nc(-c4ccccn4)cs3)n2)nc1 [[L2Cu3]^6+] | ~1.7 | decreased | no or little autophagy | – | – | – | – | – | –
2 | [Zn+2].[Zn+2].[Zn+2].c1ccc(-c2csc(NCCN(CCNc3nc(-c4ccccn4)cs3)CCNc3nc(-c4ccccn4)cs3)n2)nc1.c1ccc(-c2csc(NCCN(CCNc3nc(-c4ccccn4)cs3)CCNc3nc(-c4ccccn4)cs3)n2)nc1 [[L2Zn3]^6+] | ~2.7 | decreased | – | barely detectable | increased | ~10 | 48 | much slower | almost immediate hydrolysis
